Assay results from article PMC4457528, “Identification of Novel Small Molecule Inhibitors of Oncogenic RET Kinase” (PLoS ONE, 2015).
“And” between values parts separate entries of the source, which are not always exact repeats. Identical values can stand only once. Like-named read-outs stand apart in the source and are kept apart here.

How the values were obtained:
Assay in all cases: KinomeScan kinase panel, single concentration 10 µM
Assay type in all cases: binding
KinomeScan kinase panel [1] = biological target: T1, KinomeScan kinase panel (Homo sapiens, UniProt Q8IW41); conditions: MAPKAPK5, 10 µM; read-out: score (%)
T1 construct: purchased DiscoveRx (KinomeScan)
T1 sequence (Q8IW41 1-473): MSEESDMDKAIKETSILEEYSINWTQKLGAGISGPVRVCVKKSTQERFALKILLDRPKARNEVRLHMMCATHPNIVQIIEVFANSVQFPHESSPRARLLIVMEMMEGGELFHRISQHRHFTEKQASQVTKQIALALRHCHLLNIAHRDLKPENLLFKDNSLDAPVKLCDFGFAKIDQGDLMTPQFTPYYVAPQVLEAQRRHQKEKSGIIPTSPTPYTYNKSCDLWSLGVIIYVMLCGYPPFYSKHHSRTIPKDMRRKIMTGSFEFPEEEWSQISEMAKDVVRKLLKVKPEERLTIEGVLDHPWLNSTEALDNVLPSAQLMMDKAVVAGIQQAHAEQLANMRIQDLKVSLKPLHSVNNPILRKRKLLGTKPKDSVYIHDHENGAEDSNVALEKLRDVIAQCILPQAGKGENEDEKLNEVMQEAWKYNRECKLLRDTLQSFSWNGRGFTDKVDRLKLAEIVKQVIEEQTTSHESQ

KinomeScan kinase panel [2] = biological target: T2, KinomeScan kinase panel (Homo sapiens, UniProt O60285); conditions: ARK5, 10 µM
T2 construct: purchased DiscoveRx (KinomeScan)
T2 sequence (O60285 1-661): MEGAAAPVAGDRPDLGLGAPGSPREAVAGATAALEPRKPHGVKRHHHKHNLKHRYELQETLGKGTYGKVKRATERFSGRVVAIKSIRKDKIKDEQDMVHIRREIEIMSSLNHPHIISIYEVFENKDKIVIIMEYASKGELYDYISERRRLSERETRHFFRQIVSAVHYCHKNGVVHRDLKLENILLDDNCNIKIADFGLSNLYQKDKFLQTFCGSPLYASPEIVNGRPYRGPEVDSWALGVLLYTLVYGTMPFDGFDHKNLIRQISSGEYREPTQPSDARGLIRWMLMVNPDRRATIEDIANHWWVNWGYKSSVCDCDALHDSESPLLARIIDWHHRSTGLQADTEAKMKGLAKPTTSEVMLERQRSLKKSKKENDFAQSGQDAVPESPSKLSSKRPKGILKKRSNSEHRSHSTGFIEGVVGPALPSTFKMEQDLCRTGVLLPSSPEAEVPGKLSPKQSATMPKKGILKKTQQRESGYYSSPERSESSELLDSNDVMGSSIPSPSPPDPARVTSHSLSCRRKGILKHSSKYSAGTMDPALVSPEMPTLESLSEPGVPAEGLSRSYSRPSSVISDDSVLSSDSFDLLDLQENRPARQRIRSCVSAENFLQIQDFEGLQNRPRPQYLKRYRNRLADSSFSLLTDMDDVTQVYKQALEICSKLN

KinomeScan kinase panel [3] = tested on: KinomeScan kinase panel
KinomeScan kinase panel [4] = biological target: T3, KinomeScan kinase panel (Homo sapiens, UniProt P54764); conditions: EPHA4, 10 µM; read-out: score (%)
T3 construct: purchased DiscoveRx (KinomeScan)

KinomeScan kinase panel [5] = biological target: T4, KinomeScan kinase panel (Homo sapiens, UniProt Q96D53); conditions: ADCK4, 10 µM; read-out: score (%)
T4 construct: purchased DiscoveRx (KinomeScan)
T4 sequence (Q96D53 1-544): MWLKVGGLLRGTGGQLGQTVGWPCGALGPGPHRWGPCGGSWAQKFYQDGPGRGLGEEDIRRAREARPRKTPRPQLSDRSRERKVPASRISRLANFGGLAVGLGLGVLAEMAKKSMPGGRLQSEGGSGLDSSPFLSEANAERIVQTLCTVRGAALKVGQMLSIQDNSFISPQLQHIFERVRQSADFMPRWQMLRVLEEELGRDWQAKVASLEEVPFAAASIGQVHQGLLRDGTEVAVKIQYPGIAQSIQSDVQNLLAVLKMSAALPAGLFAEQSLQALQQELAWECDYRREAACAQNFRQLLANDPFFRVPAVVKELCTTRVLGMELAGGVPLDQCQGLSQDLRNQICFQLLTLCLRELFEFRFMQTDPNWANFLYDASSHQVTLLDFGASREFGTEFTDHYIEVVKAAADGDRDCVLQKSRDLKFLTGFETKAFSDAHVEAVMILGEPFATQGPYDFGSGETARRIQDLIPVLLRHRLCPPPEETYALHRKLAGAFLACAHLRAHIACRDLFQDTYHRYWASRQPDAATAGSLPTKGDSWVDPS

KinomeScan kinase panel [6] = biological target: T5, KinomeScan kinase panel (Homo sapiens, UniProt Q16832); conditions: DDR2, 10 µM; read-out: score (%)
T5 construct: purchased DiscoveRx (KinomeScan)
T5 sequence (Q16832 22-855): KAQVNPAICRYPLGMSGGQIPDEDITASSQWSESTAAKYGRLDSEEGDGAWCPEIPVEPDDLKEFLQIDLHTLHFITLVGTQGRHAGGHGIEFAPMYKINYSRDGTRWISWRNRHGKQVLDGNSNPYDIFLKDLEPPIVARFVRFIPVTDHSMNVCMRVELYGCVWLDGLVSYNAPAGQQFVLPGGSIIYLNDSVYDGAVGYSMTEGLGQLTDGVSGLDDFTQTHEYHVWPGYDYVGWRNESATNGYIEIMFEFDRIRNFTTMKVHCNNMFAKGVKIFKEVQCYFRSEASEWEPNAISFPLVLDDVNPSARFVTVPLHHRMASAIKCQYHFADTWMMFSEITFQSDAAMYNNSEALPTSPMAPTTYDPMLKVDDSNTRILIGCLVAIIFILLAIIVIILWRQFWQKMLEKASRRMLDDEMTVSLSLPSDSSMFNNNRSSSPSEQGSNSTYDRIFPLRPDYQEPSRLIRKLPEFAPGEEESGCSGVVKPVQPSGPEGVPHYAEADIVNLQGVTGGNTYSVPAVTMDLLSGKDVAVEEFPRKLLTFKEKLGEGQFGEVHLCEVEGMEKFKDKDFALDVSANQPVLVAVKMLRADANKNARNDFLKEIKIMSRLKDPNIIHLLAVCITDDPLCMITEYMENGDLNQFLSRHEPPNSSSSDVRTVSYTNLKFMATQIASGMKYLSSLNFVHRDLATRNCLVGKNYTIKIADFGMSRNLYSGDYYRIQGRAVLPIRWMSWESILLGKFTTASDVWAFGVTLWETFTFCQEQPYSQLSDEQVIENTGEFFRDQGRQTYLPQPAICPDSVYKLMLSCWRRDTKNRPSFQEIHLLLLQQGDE

[7] = EGFR(L747-E749del. A750P), 10 µM
[8] = EGFR(L747-S752del. P753S), 10 µM

T3 sequence (P54764 20-986): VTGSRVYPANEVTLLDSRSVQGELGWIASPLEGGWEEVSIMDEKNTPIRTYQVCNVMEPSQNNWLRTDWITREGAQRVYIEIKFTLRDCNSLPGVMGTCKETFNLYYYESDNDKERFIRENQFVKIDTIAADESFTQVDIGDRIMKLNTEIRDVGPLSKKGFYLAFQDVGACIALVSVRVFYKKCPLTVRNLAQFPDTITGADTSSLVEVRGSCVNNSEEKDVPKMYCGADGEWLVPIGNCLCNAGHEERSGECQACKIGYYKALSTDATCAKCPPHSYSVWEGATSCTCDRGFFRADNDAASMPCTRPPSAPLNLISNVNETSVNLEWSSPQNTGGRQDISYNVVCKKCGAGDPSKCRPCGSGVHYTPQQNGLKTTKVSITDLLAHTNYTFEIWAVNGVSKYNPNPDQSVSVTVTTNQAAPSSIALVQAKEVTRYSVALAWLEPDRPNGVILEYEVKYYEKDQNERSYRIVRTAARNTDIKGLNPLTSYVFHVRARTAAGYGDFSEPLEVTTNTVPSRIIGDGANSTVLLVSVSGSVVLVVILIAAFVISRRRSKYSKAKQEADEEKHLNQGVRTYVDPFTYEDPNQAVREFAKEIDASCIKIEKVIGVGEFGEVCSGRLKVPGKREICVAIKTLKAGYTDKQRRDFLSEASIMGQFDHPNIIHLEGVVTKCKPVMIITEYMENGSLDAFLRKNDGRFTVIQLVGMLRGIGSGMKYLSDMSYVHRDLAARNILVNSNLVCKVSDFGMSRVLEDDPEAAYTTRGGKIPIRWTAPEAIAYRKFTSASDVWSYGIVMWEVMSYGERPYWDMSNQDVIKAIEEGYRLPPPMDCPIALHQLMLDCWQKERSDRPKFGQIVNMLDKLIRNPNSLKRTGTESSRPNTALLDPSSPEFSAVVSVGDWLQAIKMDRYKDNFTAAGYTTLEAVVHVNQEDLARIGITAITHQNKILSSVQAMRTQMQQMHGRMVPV

SMILES	remaining binding at 10 µM (KinomeScan kinase panel [1])	score (%) (KinomeScan kinase panel [2])	score (%) (KinomeScan kinase panel [3])	score (%) (KinomeScan kinase panel [3]; FLT3(ITD), 10 µM)	score (%) (KinomeScan kinase panel [3]; kinase TAO1, 10 µM)	remaining binding at 10 µM (KinomeScan kinase panel [4])	remaining binding at 10 µM (KinomeScan kinase panel [5])	remaining binding at 10 µM (KinomeScan kinase panel [6])	score (%) (KinomeScan kinase panel [3]; [7])	score (%) (KinomeScan kinase panel [3]; [8])	score (%) (KinomeScan kinase panel [3]; EGFR(L747-T751del.Sins), 10 µM)
CCN1CCN(Cc2ccc(NC(=O)c3ccc(C)c(NC(=O)c4cncc(-c5cccs5)c4)c3)cc2C(F)(F)F)CC1 [ALW-II-41-27]	> 30%	nb (Hits values higher than 30% were considered negative (no binding: nb))	0.55% and 3% and 1.8%	0.4%	12%	0%	> 30%	12%			
CCN1CCN(Cc2ccc(NC(=O)c3ccc(C)c(C#Cc4cccnc4)c3)cc2C(F)(F)F)CC1 [XMD15-44]	> 30%	nb (Hits values higher than 30% were considered negative (no binding: nb))		0.1%		0%	> 30%	1%	1.2%	0.9%	0.45%
CCN1CCN(Cc2ccc(NC(=O)c3ccc(C)c(/C=C/c4cnc5[nH]ccc5c4Cl)c3)cc2C(F)(F)F)CC1 [HG-6-63-01, (E)-3-(2-(4-chloro-1H-pyrrolo[2,3-b]pyridin-5-yl)vinyl)-N-(4-((4-ethylpiperazin-1-yl)methyl)-3-(trifluoromethyl)phenyl)-4-methylbenzamide]	> 30%	nb (Hits values higher than 30% were considered negative (no binding: nb))		0.1%		0.55%	> 30%	0.8%	0%	0%	0%
